One assay concerns the target T1, COX-2 (Ovis aries, UniProt P79208).
T1 construct: purchased Cayman Chemical Company
T1 sequence (P79208 17-603): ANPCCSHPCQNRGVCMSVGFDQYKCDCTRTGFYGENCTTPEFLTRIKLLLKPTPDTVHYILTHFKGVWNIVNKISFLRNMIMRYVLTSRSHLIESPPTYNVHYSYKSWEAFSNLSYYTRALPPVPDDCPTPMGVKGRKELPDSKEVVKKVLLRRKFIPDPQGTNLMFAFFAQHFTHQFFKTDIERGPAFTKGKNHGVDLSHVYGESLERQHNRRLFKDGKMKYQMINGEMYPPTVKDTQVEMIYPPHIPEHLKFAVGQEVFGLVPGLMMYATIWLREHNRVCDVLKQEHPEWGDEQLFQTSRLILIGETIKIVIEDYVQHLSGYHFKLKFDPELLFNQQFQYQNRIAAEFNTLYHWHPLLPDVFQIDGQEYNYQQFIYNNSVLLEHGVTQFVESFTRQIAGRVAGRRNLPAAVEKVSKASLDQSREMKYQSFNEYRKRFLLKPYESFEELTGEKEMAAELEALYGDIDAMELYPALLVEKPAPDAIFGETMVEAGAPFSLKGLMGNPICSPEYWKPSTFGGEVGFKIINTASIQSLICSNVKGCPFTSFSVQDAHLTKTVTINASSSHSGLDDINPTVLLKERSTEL
The assay can be described thus: Colorimetric COX inhibitor screening assay, COX-2. It counts as biochemical, ovine. The method, then:
An ovine COX inhibitor screening assay (Cayman Chemical Company, Ann Arbor, Mich.) was used to measure inhibition of purified COX-1 and COX-2. This assay measures the peroxidase component of cyclooxygenases colorimetrically by monitoring the appearance of oxidized N,N,N′,N′-tetramethyl-p-phenylenediamine (TMPD) at 590 nm. Tablets of Vioxx (rofecoxib; Merck & Co., Inc., Whitehouse Station, N.J.) were ground and dissolved in methanol (1 mg/mL) to use as a positive control. AL-1, leukomisin, and austricin were also dissolved in methanol at 1 mg/mL. The assay was performed following manufacturer instructions. Vioxx, vehicle (100% initial activity), or treatments were added to a 96-well plate along with 180 μL assay mixture provided by the manufacturer containing 150 μL assay buffer, 10 μL heme, and 10 μL enzyme (COX-1 or COX-2). A background correction row received no enzyme and 10 μL additional assay buffer. After 5 min incubation at room temp, 20 μL of a colorimetric substrate solution containing TMPD and 20 μL arachadonic acid diluted in assay buffer were added to the plate. The plate was incubated for 5 min and the absorbance was read at 590 nm using a microplate reader (Molecular Devices, Sunnyvale, Calif.). To calculate percent inhibition, average absorbance was calculated for each sample (n=3). The background blank well absorbance was subtracted from each sample.
[(100% Initial activity-Blank)−(Treatment-Blank)/(100% Initial activity-Blank)]*100

For assay [1], the system named is nitric oxide (NO) production from RAW macrophages. The assay can be described thus: Griess assay for NO production by LPS-stimulated RAW macrophages. In kind it is cell-based, murine. The settings on record: at 10 μM; positive control.
Assay [2] relates to carrageenan-induced rat paw edema. The assay can be described thus: Carrageenan-induced rat paw edema. In kind it is in vivo, Wistar rats. Conditions: 200 mg/kg oral gavage, n = 5. The method, then: Groups of five adult male and female Wistar rats with body weights from 136 to 170 g were used for this study. Rats were housed five animals per cage in a room kept at 24-26° C. and fed ad libitum. Before the experiment began, rat paw sizes were recorded by measuring paw volume three times on each animal using a plethysmometer (Ugo Basile, Comerio VA, Italy). The values were averaged to give a baseline paw size value. To start the experiment, animals were given a subcutaneous injection of 1% carrageenan (100 μl; Sigma, St. Louis, Mo.) in the area of the back paw to induce an acute inflammatory reaction (paw edema). One hour after carrageenan injection, rats were orally gavaged with AL-1, aspirin, or vehicle control (5% ethanol). Paw size was measured at three hours and five hours after injection. The increase in paw edema at each time point was determined by comparison with paw volume measured pre-injection. Inhibition of edema was calculated by comparison with vehicle control at the same time point.
For orientation: The carrageenan paw model is a standard test of acute inflammation.

In assay [3] the test system is cotton pellet infiltrate and granuloma in rats. The assay can be described thus: Cotton granuloma test. In kind it is in vivo. Conditions: 200 mg/kg oral. As for the experimental part: Free access to standard rat chow and water was provided throughout the test. Three sterile cotton pellets (10 mg) were implanted hypodermically into the groin and abdominal area of rats under Nembutal (Sigma, St. Louis, Mo.) narcosis (40 mg/kg intraperitoneally). AL-1, aspirin (Sigma, St. Louis, Mo.), and vehicle control (5% ethanol) were administered by oral gavage one day before implantation, the day of implantation (1 hour before operation), and subsequently for six days after the surgery, once per day. On the seventh day after surgery, rats were euthanized by means of a large dose of Nembutal (70 mg/kg). Cotton pellets were removed and fresh weights were recorded. The cotton pellets were then were placed into an oven (60° C.) for 24 hours and weighed again.

The values that follow come from patent publication US20080145465A1, “Sesquiterpene lactone extract from artemisia leucodes for reducing inflammation and down-regulating pro-inflammatory gene expression” (priority 2006, published 2008).

Each structure is given as a SMILES string. Where “and” joins values, the source holds several entries; their conditions need not be identical. Identical values can stand only once.

`CS(=O)(=O)c1ccc(C2=C(c3ccccc3)C(=O)OC2)cc1` [Vioxx, rofecoxib]: half-maximal inhibition against COX-2 (IC50) required 40 µM.

`CC(=O)Oc1ccccc1C(=O)O` [aspirin]: in assay [1], the “NO production, % of control” value is on record as 69 % of control. Moreover, in assay [2] (3 h after carrageenan), the “inhibition of paw edema vs vehicle control” value was 53% and 53 ± 1 %. Moreover, the “inhibition of paw edema vs vehicle control” value in assay [2] (5 h after carrageenan) is 56% and 56 ± 1 %. In assay [3], this compound showed a reduction of granuloma of 44% and a reduction of infiltrate of 34%. The “granuloma (dry weight of pellet)” value in assay [3] (once per day, vehicle control 38 ± 7 mg) was found to be 21 ± 3 mg. For the same compound, the “infiltrate (wet weight of pellet)” value in assay [3] (once per day, vehicle control 139 ± 10 mg) turned out to be 92 ± 12 mg.

For orientation: IC50 means the concentration at which inhibition is half-maximal. Read a high IC50 as lower potency.
